Where two headings read alike, the source gives them in different places.
Key:
ALK-5 = ALK-5 (Homo sapiens (Human), UniProt P36897); test: LanthaScreen Eu Kinase Binding Assay, ALK-5; conditions: for IC50: read-out: Kinase Inhibition: ALK5 IC50
Procedure: Activity determinations and selectivity were conducted by Thermo Fisher Scientific “SelectScreen™ Biochemical Kinase Profiling Service” using their “LanthaScreen™ Eu Kinase Binding Assay Screening” (www.thermofisher.com/selectscreen). Binding of an Alexa Fluor™ conjugate or “tracer” to a kinase is detected by addition of a Eu-labeled anti-tag antibody. Binding of the tracer and antibody to a kinase results in a high degree of FRET, whereas displacement of the tracer with a kinase inhibitor results in a loss of FRET. This assay is carried out by mixing the compound tested with the reagents and reading, no development step is required. Life Technologies' Kinase Tracers are based on ATP-competitive kinase inhibitors, making them suitable for detection of any compounds that bind to the ATP site. Inhibitors that bind the ATP site include both Type I kinase inhibitors, which bind solely to the ATP site, and Type II inhibitors (e.g., Gleevec®/Imatinib, Sorafenib, BIRB-796), which bind to both the ATP site and a second site often referred to as the allosteric site. […] For 10 point titrations, 3-fold serial dilutions are conducted from the starting concentration (see Table 2 below). [table] All Kinase/Antibody Mixtures are diluted to a 2× working concentration in the specified kinase buffer. The 4× AlexaFluor labeled Tracer is prepared in Kinase Buffer. Bar-coded, low volume, white 384-well plate (Greiner Cat. #784207) […] 2. 3.84 μL—Kinase Buffer […] 4. 4.0 μL—4× Tracer 5. 30-second plate shake 6. 60-minute incubation at room temperature 7. […] The LanthaScreen Eu Kinase Binding Assay data is analyzed using the equations in Table 3 for each set of data points. [table] Data generated were plotted using the graphing software XLfit from IDBS. The dose response curve is curve fit to model number 205.

[1] = system: TGF-beta induced SMAD signaling; test: RDSR (RD SMAD reporter) Cellular Reporter Assay; assay type: cell-based; conditions: Homo sapiens
Description: TGF-β signaling is triggered when the activated TGF-β homodimer binds to the TGF-β receptor 2, which in turn leads to the recruitment and phosphorylation of TGF-β receptor 1 (ALK5). Activated TGF-β receptor 1 phosphorylates the signal transduction molecules SMAD2 and SMAD3. These bind to common mediator SMAD4 and translocate to the nucleus where they bind to short conserved DNA sequences called the SMAD binding element and induce the transcription of various target genes. […] Certain example compounds were also or alternatively assayed using the RDSR Cellular Reporter Assay. Overview and Design: The RD SMAD reporter (RDSR) cell line was generated by stabily integrating the SMAD cellular reporter plasmid (Promega, pGL4.48[luc2P/SBE/Hygro]) into the human rhabdomyosarcoma cell line RD (ATCC, CCL-136). Once SMAD signaling is triggered, with, for example, the addition of TGF-β 1, receptor activated SMADs bind the SMAD binding elements (SBEs) leading to the expression of intracellular luciferase. To determine the potency of compounds at inhibiting TGF-beta induced SMAD signaling, the RDSR reporter system was utilized. The rhabdomyosarcoma line RD (ATCC, CCL-136) was transfected with a SMAD reporter vector (Promega, E3671) and a polyclonal stable cell line was selected using hygromycin B. The transfected vector contains three copies of a SMAD-binding element (SBE) that drive transcription of the luciferase reporter gene luc2P (Photinus pyralis). luc2P is a synthetically-derived luciferase sequence with humanized codon optimization that is designed for high expression and reduced anomalous transcription. The luc2P gene contains hPEST, a protein destabilization sequence, which allows luc2P protein levels to respond more quickly than those of luc2 to induction of transcription. The intracellular luciferase is quantified by the addition of equal volume (100 μl) of ONE-GLO substrate (Promega, E6120) and read within ten minutes on the Envision plate reader. The stable RDSR cell line was tested by evaluating the response to human TGF-β1 (R&D Systems, 7754-BH-005) as well as human myostatin (R&D Systems, 788-G8-010/CF) in a concentration dependent manner after twenty-four hours of stimulation. […] For compound evaluation, the tool drugs Galunisertib and Vactosertib were included as positive controls. The tool drugs and the compounds of the invention being tested were all incubated with cells for one hour at 37° C. before stimulation with 200 pg/ml rhTGF-beta1 for twenty-four hours. The activity of the reporter was determined with the addition of ONE-GLO (Promega) substrate and luminescence counts collected on the Envision plate reader (Perkin Elmer). […] The activity of compounds of the invention as determined using this method are reported in the third column of Table 1, below.

[2] = 200 pg/ml rhTGF-beta1, 24 h, read-out: RD-SMAD reporter activity

Sequence of ALK-5 (P36897 34-503): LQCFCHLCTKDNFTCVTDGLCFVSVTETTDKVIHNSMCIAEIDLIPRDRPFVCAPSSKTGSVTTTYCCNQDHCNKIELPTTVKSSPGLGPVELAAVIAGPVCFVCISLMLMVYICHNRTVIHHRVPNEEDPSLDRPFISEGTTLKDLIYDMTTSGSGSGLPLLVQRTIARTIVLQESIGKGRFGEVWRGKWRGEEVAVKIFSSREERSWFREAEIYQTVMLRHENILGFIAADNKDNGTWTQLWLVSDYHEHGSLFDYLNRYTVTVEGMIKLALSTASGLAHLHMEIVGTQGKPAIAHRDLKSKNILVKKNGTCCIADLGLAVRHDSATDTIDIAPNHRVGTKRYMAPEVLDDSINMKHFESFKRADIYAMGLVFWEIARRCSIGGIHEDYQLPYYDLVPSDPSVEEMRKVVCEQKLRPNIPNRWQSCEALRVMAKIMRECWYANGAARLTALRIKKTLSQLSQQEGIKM

| SMILES | Kinase Selectivity: ALK2 IC50/ ALK5 IC50 (ALK-5) | IC50 (ALK-5) | IC50 [1, 2] | IC50 ([1]; 24 h, read-out: RD-SMAD reporter activity (nM)) |
| --- | --- | --- | --- | --- |
| Cc1c(F)ccc2c(Nc3ccnc(Nc4ccc(N5CCN(C)CC5)cc4)n3)cnnc12 [EX-01, N4-(7-fluoro-8-methylcinnolin-4-yl)-N2-(4-(4-methyl-piperazin-1-yl)-phenyl)-pyrimidine-2,4-diamine] | (++) (10<ALK2/ALK5<100=[++]) | < 10 nM | < 100 nM | – |
| Cc1c(F)ccc2c(Nc3ccnc(Nc4ccc(N5CCNCC5)cc4)n3)cnnc12 [EX-02, N4-(7-fluoro-8-methylcinnolin-4-yl)-N2-(4-(piperazin-1-yl)phenyl)-pyrimidine-2,4-diamine] | (++) (10<ALK2/ALK5<100=[++]) | < 10 nM | < 100 nM | – |
| Cc1cccc2c(Nc3ccnc(Nc4cccc(CN5CCN(C)CC5)c4)n3)cnnc12 [EX-04, N4-(8-methyl-cinnolin-4-yl)-N2-(3-((4-methyl-piperazin-1-yl)methyl)phenyl)pyrimidine-2,4-diamine] | (+) (≤10=[+]) | < 10 nM | < 100 nM | – |
| Cc1cc(F)cc2c(Nc3ccnc(Nc4ccc(N5CCN(C)CC5)cc4)n3)cnnc12 [EX-07, N4-(6-fluoro-8-methylcinnolin-4-yl)-N2-(4-(4-methylpiperazin-1-yl)phenyl)pyrimidine-2,4-diamine] | (++) (10<ALK2/ALK5<100=[++]) | < 10 nM | < 100 nM | – |
| Cc1cccc2c(Nc3ccnc(Nc4ccc(N5CCNCC5)c(F)c4)n3)cnnc12 [EX-08, N2-(3-fluoro-4-(piperazin-1-yl)phenyl)-N4-(8-methylcinnolin-4-yl)pyrimidine-2,4-diamine] | (++) (10<ALK2/ALK5<100=[++]) | < 10 nM | – | < 100 nM |
| Cc1cccc2c(Nc3nc(Nc4ccc(N5CCNCC5)cc4)ncc3F)cnnc12 [EX-09, 5-fluoro-N4-(8-methyl-cinnolin-4-yl)-N2-(4-(piperazin-1-yl)phenyl)pyrimidine-2,4-diamine] | (+) (≤10=[+]) | 10 to 100 nM | 100 to 1000 nM | – |
| Cc1cc(F)cc2c(Nc3ccnc(Nc4ccc(N5CCNCC5)cc4)n3)cnnc12 [EX-15, N4-(6-fluoro-8-methyl-cinnolin-4-yl)-N2-(4-(piperazin-1-yl)phenyl)-pyrimidine-2,4-diamine] | (++) (10<ALK2/ALK5<100=[++]) | < 10 nM | < 100 nM | – |
| Cc1cccc2c(Nc3ccnc(Nc4cc(CC5CCNCC5)ccc4F)n3)cnnc12 [EX-16, N2-(2-fluoro-5-(piperidin-4-ylmethyl)-phenyl)-N4-(8-methyl-cinnolin-4-yl)-pyrimidine-2,4-diamine] | (++) (10<ALK2/ALK5<100=[++]) | 10 to 100 nM | 100 to 1000 nM | – |
| Cc1cccc2c(Nc3ccnc(Nc4ccc(N5CCN(CC(F)(F)F)CC5)cc4)n3)cnnc12 [EX-17, N4-(8-methyl-cinnolin-4-yl)-N2-(4-(4-(2,2,2-trifluoroethyl)-piperazin-1-yl)phenyl)-pyrimidine-2,4-diamine] | (++) (10<ALK2/ALK5<100=[++]) | < 10 nM | < 100 nM | – |
| Cc1cccc2c(Nc3ccnc(Nc4ccc(N5CCN(C)CC5)cc4F)n3)cnnc12 [EX-21, N2-(2-fluoro-4-(4-methyl-piperazin-1-yl)phenyl)-N4-(8-methyl-cinnolin-4-yl)-pyrimidine-2,4-diamine] | (++) (10<ALK2/ALK5<100=[++]) | 10 to 100 nM | 100 to 1000 nM | – |
| Cc1cccc2c(Nc3ccnc(Nc4ccc(N5CCNCC5)cc4F)n3)cnnc12 [EX-22, N2-(2-fluoro-4-(piperazin-1-yl)phenyl)-N4-(8-methylcinnolin-4-yl)pyrimidine-2,4-diamine] | (+++) (100≤ALK2/ALK5=[+++]) | < 10 nM | < 100 nM | – |
| Cc1cccc2c(Nc3ccnc(Nc4ccc(N5CCN(C)CC5)nc4)n3)cnnc12 [EX-23, N4-(8-methylcinnolin-4-yl)-N2-(6-(4-methylpiperazin-1-yl)pyridin-3-yl)pyrimidine-2,4-diamine] | (++) (10<ALK2/ALK5<100=[++]) | < 10 nM | < 100 nM | – |
| Cc1ccc(F)c2c(Nc3ccnc(Nc4ccc(N5CCN(C)CC5)cc4)n3)cnnc12 [EX-24, N4-(5-fluoro-8-methylcinnolin-4-yl)-N2-(4-(4-methylpiperazin-1-yl)phenyl)pyrimidine-2,4-diamine] | (++) (10<ALK2/ALK5<100=[++]) | < 10 nM | < 100 nM | – |
| Cc1cccc2c(Nc3ccnc(Nc4ccc(N5CC6CCC(C5)N6C)cc4)n3)cnnc12 [EX-27, N2-(4-(8-methyl-3,8-diazabicyclo[3.2.1]octan-3-yl)phenyl)-N4-(8-methylcinnolin-4-yl)pyrimidine-2,4-diamine] | (++) (10<ALK2/ALK5<100=[++]) | < 10 nM | < 100 nM | – |

Further lines, with some results ahead:

| Kinase Selectivity: ALK2 IC50/ ALK5 IC50 (ALK-5) | IC50 (ALK-5) | IC50 [1, 2] | SMILES | IC50 ([1]; 24 h, read-out: RD-SMAD reporter activity (nM)) |
| --- | --- | --- | --- | --- |
| (++) (10<ALK2/ALK5<100=[++]) | < 10 nM | 100 to 1000 nM | Cc1cccc2c(Nc3ccnc(Nc4cc(CN5CCNCC5)ccc4F)n3)cnnc12 [EX-03, N2-(2-fluoro-5-(piperazin-1-yl-methyl)phenyl)-N4-(8-methyl-cinnolin-4-yl)-pyrimidine-2,4-diamine] | – |
| (++) (10<ALK2/ALK5<100=[++]) | < 10 nM | 100 to 1000 nM | Cc1cccc2c(Nc3ccnc(Nc4ccc(CC5CCNCC5)cc4)n3)cnnc12 [EX-05, N4-(8-methylcinnolin-4-yl)-N2-(4-(piperidin-4-ylmethyl)pheny)pyrimidine-2,4-diamine] | – |
| (+) (≤10=[+]) | < 10 nM | < 100 nM | Cc1cccc2c(Nc3ccnc(Nc4cc(F)cc(CN5CCNCC5)c4)n3)cnnc12 [EX-06, N2-(3-fluoro-5-(piperazin-1-ylmethyl)phenyl)-N4-(8-methyl-cinnolin-4-yl)pyrimidine-2,4-diamine] | – |
| (++) (10<ALK2/ALK5<100=[++]) | < 10 nM | < 100 nM | Cc1cccc2c(Nc3ccnc(Nc4ccc(CN5CCNCC5)cc4)n3)cnnc12 [EX-20, N4-(8-methyl-cinnolin-4-yl)-N2-(4-(piperazin-1-yl-methyl)phenyl)pyrimidine-2,4-diamine] | – |
| (++) (10<ALK2/ALK5<100=[++]) | < 10 nM | < 100 nM | Cc1cccc2c(Nc3ccnc(Nc4ccc(CN5CCOCC5)cc4)n3)cnnc12 [EX-25, N4-(8-methylcinnolin-4-yl)-N2-(4-(morpholinomethyl)phenyl)pyrimidine-2,4-diamine] | – |
| (++) (10<ALK2/ALK5<100=[++]) | < 10 nM | < 100 nM | Cc1cccc2c(Nc3ccnc(Nc4ccc(CN5CCN(C)CC5)cc4)n3)cnnc12 [EX-26, N4-(8-methylcinnolin-4-yl)-N2-(4-((4-methylpiperazin-1-yl)methyl)phenyl)pyrimidine-2,4-diamine] | – |

— patent US11746103B2, “ALK-5 inhibitors and uses thereof” (Sumitomo Pharma Oncology, Inc., priority 2020, dated 2023)
